The structures appear in SMILES notation.

Data set [1] relates to plasma corticosterone in mice with ACTH-secreting AtT-20 cell tumors. The data set can be described thus: ACTH-secreting AtT-20 mouse pituitary cell tumor model, 14 days of daily oral dosing. Type of data set: in vivo. The note with it: for suppression of plasma corticosterone: 2 hours after last dose, vs vehicle. The method, then:
The ability of 14 days of daily oral administration of Compound 1 to suppress corticosterone in a mouse model of ACTH excess was evaluated.
Briefly, female Balb/c nude mice were subcutaneously implanted with AtT-20 corticotroph tumor cells in the rear flank (3 million cells/injection/animal) on Day 0. The no-tumor (NT) control group was injected with media only. When tumors became palpable on Day 21, mice were assigned to groups randomized for body weight, and 0, 15, 30 or 100 mg/kg/day of Compound 1. Compound 1 was orally administered for 14 days (Day 21 to Day 34).

In data set [2] the test system is basal and ACTH-stimulated cortisol. Put plainly: Phase 1 MAD study, basal and ACTH-stimulated cortisol. Type of data set: in vivo, human. The source says: This Phase 1, first-in-human, double-blind, randomized, placebo-controlled study will evaluate the safety of Compound 1 in healthy volunteers as well as the relationship between exposure and pharmacodynamic (PD) parameters, including ACTH-stimulated and endogenous cortisol secretion measured in blood, saliva, and urine. Results will be used to inform endpoints and other parameters in future later studies in patients with Cushing's disease (CD) or other diseases of excess adrenocorticotropic hormone (ACTH), including Congenital Adrenal Hyperplasia (CAH) and Ectopic ACTH Syndrome (EAS).
MAD/Part 2: multiple ascending dose, randomized, placebo-controlled, double-blind; 2 planned and up to 4 total cohorts (n=36). In each cohort, 6 subjects will receive Compound 1, 3 subjects will receive the placebo. The doses will not exceed the doses in the SAD.
Starting on Day −1 until EOS (or ET), fasting pre-dose blood samples are collected <15 minutes prior to dosing for measurement of serum cortisol, A4, 17-OHP, aldosterone, ACTH(1 39), renin, and DHEAS. […] Cosyntropin is then administered (250 mcg in the “high dose” test; 1 mcg in the “low dose” test) to define time 0 of the ACTH-stimulation test. […]
At Screening and on Days 2, 3, 5, 6, 7, 8, 10, 11, and 12, fasting blood samples are collected for measurement of serum cortisol at 4 hours (15 minutes) post-dose (˜1200 hr). On Days in which the ACTH-stimulation test is conducted, this collection will be 120 min post-cosyntropin administration such that post-cosyntropin cortisol collection times are Time 30 minutes (5 minutes), Time 60 minutes (5 minutes), and Time 120 minutes (5 minutes).
A 24-hour blood biomarker profile is measured starting Day −1 until Day 1 pre-dose, Day 1 post-dose until Day 2 pre-dose, Day 4 post-dose until Day 5 pre-dose, and Day 9 post-dose until Day 10 pre-dose.

[3] abbreviates: daily oral dosing over the course of the experiment.

For the compound `CCOc1ccccc1-c1ccc(N2CCN(C(=O)C3(C(F)(F)F)CCC3)C[C@H]2CC)c(C(=O)N[C@@H]2CN3CCC2CC3)n1` [Compound 1, 6-(2-ethoxyphenyl)-3-((R)-2-ethyl-4-(1-(trifluoromethyl)cyclobutane-1-carbonyl)piperazin-1-yl)-N—((S)-quinuclidin-3-yl)picolinamide], the “suppression of plasma corticosterone” value in data set [1] (15 mg/kg/day) was 73%; in data set [1] (30 mg/kg/day), 88%; in data set [1] (100 mg/kg/day), 92%. Besides, the “increase in ACTH levels” value in data set [1] (100 mg/kg/day vs vehicle) worked out at 2.4 fold. The body weight entry in data set [1] (setting [3]) is “no significant effect”. For the same compound, the tumor volume entry in data set [1] (setting [3]) is reported as “no significant effect”. Besides, the “basal and ACTH-stimulated cortisol secretion” value in data set [2] (4 h post-dose throughout the MAD study) was “suppressed basal and ACTH-stimulated cortisol secretion”. Further, the basal unstimulated cortisol entry in data set [2] (at 24 hours (before the next dose)) is “suppression of basal unstimulated cortisol was not observed”. Further, the “basal and ACTH-stimulated cortisol levels” value in data set [2] (high dose ACTH-stimulation test, after 10 days of dosing) was “suppressed basal and ACTH-stimulated cortisol levels”.
